Assay results as given in PMC5787524, “Discovery of a FLT3 inhibitor LDD1937 as an anti-leukemic agent for acute myeloid leukemia” (Oncotarget, 2017).

How the values were obtained:
IRAK4 = target: T1, IRAK4 (Homo sapiens, UniProt Q9NWZ3); test: In vitro IRAK4 kinase assay (LANCE Ultra); format: biochemical
T1 sequence (Q9NWZ3 1-460): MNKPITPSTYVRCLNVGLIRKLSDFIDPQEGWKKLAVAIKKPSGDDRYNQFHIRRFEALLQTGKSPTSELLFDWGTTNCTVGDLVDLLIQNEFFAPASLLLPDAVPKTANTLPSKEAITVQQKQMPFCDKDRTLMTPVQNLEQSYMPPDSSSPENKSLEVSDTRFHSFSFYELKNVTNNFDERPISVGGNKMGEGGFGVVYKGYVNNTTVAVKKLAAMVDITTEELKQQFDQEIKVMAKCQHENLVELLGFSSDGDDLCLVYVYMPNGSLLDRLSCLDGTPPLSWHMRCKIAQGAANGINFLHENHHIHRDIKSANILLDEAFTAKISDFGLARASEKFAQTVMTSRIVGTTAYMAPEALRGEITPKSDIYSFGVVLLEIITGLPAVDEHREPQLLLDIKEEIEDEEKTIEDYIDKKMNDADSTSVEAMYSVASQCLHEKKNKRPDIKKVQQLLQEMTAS
Experimental: The in vitro kinase assay for IRAK4 was done with the LANCE Ultra Kinase Activity Assay (Perkin Elmer) containing the ULight-p70S6K (Thr389) peptide (phosphorylation motif […]). The assays consisted of the enzyme mixed with serially diluted compounds, 50 nM ULight-p70S6K (Thr389) peptide, and 500 μM ATP prediluted in kinase buffer (50 mM HEPES (pH 7.5), 10 mM MgCl2, 1 mM EGTA, 2 mM DTT, and 0.01% Tween20). Ten microliters of the total volume of the kinase reaction were added to the wells of a 96-well assay plate. The kinase reactions were incubated for 90 min. at 25°C and stopped by the addition of 10 mM EDTA. For the detection of the phospho-substrate, the Eu-anti-phospho-p70S6K (Thr389) antibody diluted in detection buffer was added to a final concentration of 2 nM, and the reactions were then incubated for 1 h at 25°C. The signal was measured on an EnVision multi-label reader.

PC-3 cells = test: Cell viability / growth inhibition (EZ-Cytox), PC-3; format: cell-based; details: Homo sapiens, Table 2, 72 h
Experimental: MV-4-11 human acute myeloid leukemia cells were purchased from the American Type Culture Collection (ATCC, Rockville, MD, USA, CRL-9591), and the cells were cultured in IMDM medium (Sigma Co., St. Louis, MO, USA) supplemented with 10% fetal bovine serum, 1% penicillin/streptomycin and 4 mM L-glutamine (Life Technology, Grand Island, NY). Jurkat (human acute T lymphocytic leukemia, ATCC TIB-152) and K562 (human chronic myelogenous leukemia, ATCC CCL-243) cells were cultured in RPMI-1640 (Sigma Co.), and MCF7 (human breast adenocarcinoma, ATCC HTB-22) and PC-3 (human prostate adenocarcinoma, ATCC CRL-1435) cells were cultured in DMEM (Sigma Co.) medium supplemented with 10% fetal bovine serum and 1% penicillin/streptomycin. The cultured cells were incubated at 37°C with 5% CO2. Cell viability was assessed with a tetrazolium-based assay using the EZ-Cytox Cell Viability Assay kit (DaeilLab, Korea). Briefly, 2,000 ∼ 15,000 cells were plated in 96-well flat bottom plates in 100 µl of medium. The next day, the cells were treated with compounds along with dimethyl sulfoxide (DMSO, Fisher, Waltham, MA, USA) as a negative control. […] After incubation, the optical density (OD) was measured at a wavelength of 450 nm with a Victor multilabel reader (Perkin Elmer, Waltham, MA, USA). The IC50 was calculated with nonlinear regression using Prism version 5.01 (GraphPad, La Jolla, CA, USA).

MV-4-11 cells = test: Annexin V / propidium iodide flow cytometry (apoptosis); format: cell-based, human; details: 10 nM, 24 h
Experimental: For Annexin V staining, the Alexa Flour® 488 Annexin V/ Dead Cell Apoptosis Kit (ThermoFisher, USA) was used. Cells were seeded in 6-well plates (1 × 10^6 cells per well) and treated with compounds for 24 h. The cells were stained with Annexin V and propidium iodide (PI) according to the manufacturer’s instruction. Then, the cells were subjected to flow cytometry using an Accuri C6 flow cytometer (BD Bio-sciences, San Jose, CA, USA). The data were analyzed with the BD Accuri C6 software.

[1] = tested on: cyclin D1 level in MV-4-11 cells; test: Cyclin D1 western blot; format: cell-based, human; details: MV-4-11, 16 h, from as low as 10 nM
Experimental: (§1) Cells were lysed in SDS Lysis buffer (12 mM Tris-Cl, pH 6.8, 5% glycerol, and 0.4% SDS), and the protein concentrations were measured with the SMART BCA Protein Assay kit (iNtRON Biotechnology, Korea). The proteins were resolved with SDS-polyacrylamide gel electrophoresis followed by transfer to PVDF membranes (Millipore, Billerica, MA, USA) and incubated overnight with the appropriate antibodies. The antibodies used were as follows: phospho-STAT5 (p-STAT5; rabbit polyclonal IgG; #9351, 1:1,000), cyclin D1 (rabbit polyclonal IgG; #2922, 1:1,000), and PARP (rabbit polyclonal IgG; #9542, 1:1,000) from Cell Signaling Technology (Danver, MA, USA), STAT5 (rabbit polyclonal IgG; #sc-835, 1:1,000) from Santa Cruz (Santa Cruz, CA, USA), and β-actin (mouse monoclonal IgG; # A5441, 1:5000) from Sigma-Aldrich. Goat anti-rabbit IgG (#111-035-003; 1;5,000) and anti-mouse IgG (#115-035-033; 1:5,000) secondary antibodies were obtained from Jackson ImmunoResearch Laboratories, Inc. (West Grove, PA, USA).

[2] = tested on: phosphorylated STAT5 in MV-4-11 cells; test: STAT5 phosphorylation western blot; format: cell-based, human; details: MV-4-11, 4 h
Experimental: as §1

Which results are given for COC(=O)c1ccc2c(c1)/C(=C1/Nc3ccccc3/C1=N\OCCN1CCNCC1)C(=O)N2.Cl.Cl [LDD1937, methyl (2Z,3E)-2′-oxo-3-((2-(piperazin-1-yl)ethoxy)imino)-[2,3′-biindolinylidene]-5′-carboxylate dihydrochloride]?
IC50 (IRAK4): 300 nM; GI50 (PC-3 cells): 1100 ± 140 nM; cells in upper right quadrant (Annexin V+ and PI+, late apoptotic) (MV-4-11 cells): 24.8%; cyclin D1 level [1]: dose-dependent reduction of the cyclin D level; phosphorylated STAT5 ([2]; 1 nM): a reduction in the phosphorylated STAT5 was observed; phospho-STAT5 band ([2]; 0.1 µM): completely disappeared
